Experimental data taken from patent US20260315483A1, “HETEROCYCLIC COMPOUNDS AS TRIGGERING RECEPTOR EXPRESSED ON MYELOID CELLS 2 AGONISTS AND METHODS OF USE” (VIGIL NEUROSCIENCE, INC., priority 2023, published 2026).

Molecular target: T1, human TREM2 (Homo sapiens, UniProt Q9NZC2)
T1 construct: expressed in transfected cells; host or cells: HEK293T-hTREM2 cells (HEK cell line expressing human TREM2 and DAP12)
Assay: In vitro measurement of TREM2 activity using cellular phosphorylation of spleen tyrosine kinase (Syk), AlphaLisa, HEK293T-hTREM2 cells
Format: cell-based
Settings: HEK293T cells expressing human TREM2 and DAP12, 45 min at room temperature, Table D-2
Experimental: In Vitro Measurement of Triggering Receptor Expressed on Myeloid Cells 2 Activity Using Cellular Phosphorylation of Spleen Tyrosine Kinase (“Syk”) Assays
Measurement of TREM2 agonist potency was done using a HEK cell line expressing human TREM2 and DAP12 (HEK293T-hTREM2 cells). Binding of small molecules to, and activation of, TREM2 increases the phosphorylation of Syk. The resultant levels of Syk phosphorylation are measured using a commercial AlphaLisa reagent kit. To perform the assay, HEK-hTREM2 cells were plated at 14,000 cells per well in a 384 well plate, in 25 μL of complete growth media and incubated at 37° C., 5% CO2 for 20-24 hours.
Prior to the assay, test compounds were diluted in the 384 well plates in assay buffer and allowed to equilibrate for 30 minutes. Growth media was removed from cell plates by inversion on blotting paper, and 25 μL of test articles in assay buffer was added to cells. Cells were incubated for 45 minutes at room temperature. After 45 minutes, assay buffer was removed and 10 μL of lysis buffer was added. Plates were shaken for 20 minutes at 350 RPM at room temperature. After complete lysis, AlphaLisa reagents were added to the lysate, and fluourescence intensity was measured using a Perkin Elmer Envision plate reader. Intensities were used to generate a standard curve, and % activation was calculated. Curve fitting was performed using Prism v9 software, log(agonist) vs response—variable slope (four parameters), and EC50s were calculated from the curve fit.
The results presented in Tables D and D-2 have been generated with the in vitro assay described above. This assay may be used to test any of the compounds described herein to assess and characterize a compound's ability to act as an agonist of TREM2.

T1 sequence (Q9NZC2 19-230): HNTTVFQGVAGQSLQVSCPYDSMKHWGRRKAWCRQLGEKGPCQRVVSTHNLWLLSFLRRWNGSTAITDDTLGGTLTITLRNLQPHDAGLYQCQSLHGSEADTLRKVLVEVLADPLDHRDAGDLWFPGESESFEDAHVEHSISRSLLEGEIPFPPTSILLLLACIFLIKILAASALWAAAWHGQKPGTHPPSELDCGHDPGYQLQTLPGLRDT
T1 sequence (O43914 22-113 partner): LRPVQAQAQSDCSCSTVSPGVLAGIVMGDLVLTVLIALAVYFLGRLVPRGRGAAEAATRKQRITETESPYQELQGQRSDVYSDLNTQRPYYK

EC50	SMILES
50 to 500 nM	CN1Cc2c(cc([C@H]3CCO[C@@H](c4cnn(C5CC5)c4)C3)nc2C23CC(C(F)(F)F)(C2)C3)C1=O [compound 226]
≤ 50 nM	C[C@@H]1CN(c2cc3c(c(-c4ccc(C(F)(F)F)cc4F)n2)CN(c2ccn(C)n2)C3=O)C[C@H](c2cnn(C3CC3)c2)O1 [compound 228, 6-((2S,6R)-2-(1-cyclopropyl-1H-pyrazol-4-yl)-6-methylmorpholino)-4-(2-fluoro-4-(trifluoromethyl)phenyl)-2-(1-methyl-1H-pyrazol-3-yl)-2,3-dihydro-1H-pyrrolo[3,4-c]pyridin-1-one]
